# According to US7718671B2, “Substituted arylthiourea derivatives useful as inhibitors of viral replication” (Achillion Pharmaceuticals, Inc., priority 2003, dated 2010):
# Test system: Hepatitis C replicon
# Experiment: HCV replicon assay (NPT level by captured ELISA in replicon-containing cells)
# Type: cell-based
# Details: Hepatitis C virus, 72 h; Huh-7 HCV replicon-containing cells, three days incubation
# Description: The compounds claimed herein were tested for the ability to inhibit viral replication of the Hepatitis C replicon in cultured cells in which the HCV replicon construct has been incorporated. The HCV replicon system was described by Bartenschlager, et. al (Science, 285, pp. 110-113 (1999)). The replicon system is predictive of in vivo anti-HCV activity; compounds that are active in humans uniformly evidence activity in the replicon assay.
# HCV replicon-containing cells are treated with different concentrations of interferon alpha, a known inhibitor of HCV replication, as a positive control and with different concentrations of the test compound. The replicon assay system includes Neomycin Phosphotransferase (NPT) as a component of the replicon itself in order to detect the transcription of replicon gene products in the host cell. Cells in which the HCV is actively replicating have high levels of NPT; the level of NPT is proportional to HCV replication. […] The NPT level of each sample is measured using a captured ELISA.
# A protocol for testing compounds for the ability to inhibit viral replication of the Hepatitis C replicon cultured cells in which the replicon construct has been incorporated, follows.
# 9A. HCV Replicon and Replicon Expression
# The HCV genome consists of a single ORF that encodes a 3000 amino acid polyprotein. The ORF is flanked on the 5′ side by an untranslated region that serves as an internal ribosome entry site (IRES) and at the 3′ side by a highly conserved sequence necessary for viral replication (3′-NTR). The structural proteins, necessary for viral infection, are located near the 5′ end of the ORF. The non-structural proteins, designated NS2 to NS5B comprise the remainder of the ORF.
# The HCV replicon contains, 5′-3′, the HCV-IRES, the neomycin phosphotransferase (neo) gene, the IRES of encephalomyocarditis virus, which directs translation of HCV sequences NS3 to NS5B, and the 3′-NTR. The sequence of the HCV replicon has been deposited in GenBank (Accession no. AJ242652).
# The replicon is transfected into Huh-7 cells using standard methods such as electroporation.
# The equipment and materials include, but are not limited to, Huh-7 HCV replicon-containing cells, maintenance media (DMEM (Dulbecco's modified Eagle media) supplemented with 10% FBS, L-glutamine, non-essential amino acids, penicillin (100 units/ml), streptomycin (100 micrograms/ml), and 500 micrograms/ml of Geneticin G418), screening media (DMEM supplemented with 10% FBS, L-glutamine, and non-essential amino acid, penicillin (100 units/ml) and streptomycin (100 micrograms/ml)), 96 well tissue culture plates (flat bottom), 96 well plates (U bottom for drug dilution), Interferon alpha for positive control, fixation reagent (such as methanol: acetone), primary antibody (rabbit anti-NPTII), secondary antibody: Eu—N1l, and enhancement solution.
# HCV replicon-containing cells support high levels of viral RNA replicon replication when their density is suitable. Over confluency will cause a decrease of viral RNA replication. Therefore, cells must be kept growing in log phase in the presence of 500 micrograms/ml of G418. Generally, cells should be passed twice a week at 1: 4-6 dilution. Cell maintenance is conducted as follows:
# HCV replicon-containing cells are examined under a microscope to ensure that cells growing well. Cells are rinsed once with PBS and 2 ml trypsin is added. The cell/trypsin mixture is incubated at 37° C. in a CO2 incubator for 3-5 minutes. After incubation 10 ml of complete media is added to stop the trypsinization reaction. Cells are blown gently, put into a 15 ml tube, and spun at 1200 rpm for 4 minutes. The trypsin/medium solution is removed. Medium (5 ml) is added and the cells are mixed carefully. The cells are counted.
# The cells are then seeded onto 96-well plates at a density of 6000-7500 cells/100 ul/well (6-7.5×10^5 cells/10 ml/plate). The plates are then incubated at 37° C. in a 5% CO2 incubator. […]
row,SMILES,EC50 [nM]
1,"CCCCCOc1ccc(NC(N)=S)cc1F [Compound 12, 1-(3-Fluoro-(4-Pentyloxy)-phenyl)-thiourea]",< 1000
2,"NC(=S)NCc1ccc(Oc2ccccc2)cc1 [Compound 55, 1-(4-phenoxybenzyl)thiourea]",< 1000
3,"NC(=S)Nc1cccc(NCC2CCCCC2)c1 [Compound 52, 1-(3-(cyclohexylmethylamino)phenyl)thiourea]",< 1000
4,"COc1cccc(Cc2cccc(NC(N)=S)c2)c1 [Compound 35, 1-(3-(3-methoxybenzyl)phenyl) thiourea]",< 1000
5,"NC(=S)Nc1cccc(OC2Cc3ccccc3C2)c1 [Compound 13, 1-(3-(indan-2-yloxy)phenyl)thiourea]",< 1000
6,"NC(=S)Nc1ccc(-c2ccccc2)cc1 [Compound 23, 1-(4-(phenyl)phenyl)thiourea]",< 1000
7,"NC(=S)Nc1ccc(N2CCCCC2)c(C(F)(F)F)c1 [Compound 32, 1-(3-(trifluoromethyl)-4-(piperidin-1-yl)phenyl)thiourea]",< 1000
8,"NC(=S)Nc1ccc(N2CCc3ccccc3C2)cc1 [Compound 25, 1-(4-(3,4-dihydro-isoquinolin-2(1H)-yl)phenyl)thiourea]",< 1000
9,"NC(=S)Nc1cccc(OCc2cccc(C(F)(F)F)c2)c1 [Compound 53, 1-(3-(3-(trifluoromethyl)benzyloxy)phenyl)thiourea]",< 1000
10,"NC(=S)NCc1cccc(-c2ccccc2)c1 [Compound 56, 1-(3-phenylbenzyl)thiourea]",< 1000
11,"NC(=S)Nc1cccc(-c2ccccc2)c1 [Compound 22, 1-(3-(phenyl)phenyl)thiourea]",< 1000
12,"CCCCCC[C@H]1CC[C@H](c2ccc(NC(N)=S)cc2)CC1 [Compound 29, 1-(4-((1s,4r)-4-hexylcyclohexyl)phenyl)thiourea]",< 1000
13,"NC(=S)Nc1ccc(N2CCc3ccccc3C2)c(F)c1 [Compound 24, 1-(3-fluoro-4-(3,4-dihydro-isoquinolin-2(1H)-yl)phenyl)thiourea]",< 1000
14,"NC(=S)Nc1cccc(Cc2ccccc2)c1 [Compound 5, 1-(3-Benzyl-phenyl)-thiourea]",< 1000
15,"CCC[C@H]1CC[C@H](c2ccc(NC(N)=S)cc2)CC1 [Compound 31, 1-(4-((1s,4r)-4-propylcyclohexyl)phenyl)thiourea]",< 1000
16,"CCCCC#Cc1ccc(NC(N)=S)cc1 [Compound 33, 1-(4-(hex-1-ynyl)phenyl)thiourea]",< 1000
17,"CCCCCOc1ccc(NC(N)=S)cc1 [Compound 6, 1-(4-Pentyloxy-phenyl)-thiourea]",< 1000

row,SMILES,EC50 [nM]
1,"NC(=S)NCc1ccc(-c2ccccc2)cc1 [Compound 57, 1-(4-phenylbenzyl)thiourea]",< 1000
2,"CCCCc1ccc(CNC(N)=S)cc1 [Compound 59, 1-(4-butylbenzyl)thiourea]",< 1000
3,"C[C@@H](Oc1cccc(NC(N)=S)c1)c1ccccc1 [Compound 20, 1-(3-((R)-1-phenylethoxy)phenyl)thiourea]",< 1000
4,"NC(=S)Nc1ccc(OCc2ccccc2)cc1 [Compound 28, 1-(4-(benzyloxy)phenyl)thiourea]",< 1000
5,"C[C@H](Oc1cccc(NC(N)=S)c1)c1ccccc1 [Compound 16, 1-(3-((S)-1-phenylethoxy)phenyl)thiourea]",< 1000
6,"CCCCCc1ccc(NC(N)=S)cc1 [Compound 7, 1-(4-Pentyl-phenyl)-thiourea]",< 1000
7,"NC(=S)Nc1cccc(Oc2ccccc2)c1 [Compound 3, 1-(3-Phenoxy-phenyl)-thiourea]",< 1000
8,"NC(=S)Nc1ccc(N2CCC3CCCCC3C2)cc1 (stereo not drawn) [Compound 26, 1-(4-(octahydroisoquinolin-2(1H)-yl)phenyl)thiourea]",< 1000
9,"NC(=S)Nc1cccc(OCCc2ccccc2)c1 [Compound 21, 1-(3-(phenethyloxy)phenyl)thiourea]",< 1000
10,"Cc1cc(NC(N)=S)ccc1N1CCCCC1 [Compound 51, 1-(3-(methyl)-4-(piperidin-1-yl)phenyl)thiourea]",< 1000
11,"CCCCCCCOc1ccc(NC(N)=S)cc1C(F)(F)F [Compound 39, 1-(4-(heptyloxy)-3-(trifluoromethyl)phenyl)thiourea]",< 1000
12,"NC(=S)Nc1cccc(OCc2ccc(-c3ccccc3)cc2)c1 [Compound 15, 1-(3-(4-phenylbenzyloxy)phenyl)thiourea]",< 1000
13,"CCCCCCC12CCC(c3ccc(NC(N)=S)cc3)(CC1)CC2 [Compound 30, 1-(4-(4-hexylbicyclo[2.2.2]octan-1-yl)phenyl)thiourea]",< 1000
14,"NC(=S)Nc1ccc(N2CCC(c3ccccc3)CC2)c(F)c1 [Compound 54, 1-(3-fluoro-4-(4-phenylpiperidin-1-yl)phenyl)thiourea]",< 1000
15,"NC(=S)Nc1cccc(OCc2ccc(F)c(F)c2)c1 [Compound 14, 1-(3-(3,4-difluorobenzyloxy)phenyl)thiourea]",< 1000
16,"NC(=S)Nc1ccc2c(c1)OC(c1ccccc1)O2 (stereo not drawn) [Compound 19, 1-(2-phenylbenzo[d]-[1,3]dioxol-6-yl)thiourea]",< 1000
